Tests used:
[1] = target: rat P2X7 (Rattus norvegicus (Rat), UniProt Q64663); assay: Rat P2X7 functional assay (Ca2+ influx, Fluo-4, FDSS); assay type: cell-based; settings: HEK293 cells stably expressing rat P2X7; BzATP final 10 microM; 7-point dose-response; read-out: Antagonistic activities with respect to the rat P2X7 receptor (IC50)
Method: Rat P2X7 Functional Assay
The functional activity of compounds was determined by measuring changes in intracellular calcium concentration using a Ca^2+-sensitive fluorescent dye, Fluo-4 (Molecular Probes). The changes in fluorescent signal were monitored by the cell imaging technology by Hamamatsu Photonics's Functional Drug Screening System (FDSS). Increases in intracellular Ca^2+ concentration were readily detected upon activation with BzATP.
HEK293 cells stably expressing rat P2X7 (GenBank accession number NM_019256) were grown in Corning CellBIND cell culture flasks, in a 5% CO2 humidified incubator to about 80% confluence. Media composition consisted of Dulbecco's Modified Eagle Medium (high glucose), 10% fetal bovine serum ([…]), 100 units/[…] Penicillin, 100 microg/mL Streptomycin and 250 microg/mL Geneticine.
1. […] Plate-out HEK293-rat P2X7 cells (40 microL medium containing 5,000 cells per well) into poly-D-lysine coated 384-well plates (BD Falcon) at 24 h prior to assay.
2. Incubate at 37° C. in 5% CO2.
3. Incubate the plate at 37° C. in 5% CO2 for 1 h.
5. Test compounds were prepared at 100× the test concentration in DMSO by serial dilution with Biomek-FX liquid handling instrument. 33× diluted compound solutions in assay buffer were prepared in intermediate compound plate with Biomek-NX liquid handling instrument. A further 3× dilution occurred in below steps 6 and 7.
6. Add 20 microL of 33× diluted compound solutions into each well and leave the plate for 10 min under the dark at room temperature.
7. Measure activity by FDSS as follows: • Set the assay plate on the stacker of FDSS. • Start the detection of fluorescence intensity at 540 nm by 480 nm exicitation. • After 30 seconds, add 20 microL of assay buffer containing 30 microM BzATP (final 10 microM).
IC50 values for compounds of the present invention were determined from 7-point dose-response studies. Curves were generated using the average of duplicate wells for each data point. Finally, the IC50 values are calculated with the best-fit dose curve determined by XLfit (ID Business Solutions Ltd.).

[2] = target: human P2X7 (Homo sapiens (Human), UniProt Q99572); assay: Human P2X7 functional assay (Ca2+ influx, Fluo-4, FDSS); assay type: cell-based; settings: antagonistic activity with respect to the human P2X7 receptor; BzATP final concentration 80 microM
human P2X7, sequence (Q99572 whole entry): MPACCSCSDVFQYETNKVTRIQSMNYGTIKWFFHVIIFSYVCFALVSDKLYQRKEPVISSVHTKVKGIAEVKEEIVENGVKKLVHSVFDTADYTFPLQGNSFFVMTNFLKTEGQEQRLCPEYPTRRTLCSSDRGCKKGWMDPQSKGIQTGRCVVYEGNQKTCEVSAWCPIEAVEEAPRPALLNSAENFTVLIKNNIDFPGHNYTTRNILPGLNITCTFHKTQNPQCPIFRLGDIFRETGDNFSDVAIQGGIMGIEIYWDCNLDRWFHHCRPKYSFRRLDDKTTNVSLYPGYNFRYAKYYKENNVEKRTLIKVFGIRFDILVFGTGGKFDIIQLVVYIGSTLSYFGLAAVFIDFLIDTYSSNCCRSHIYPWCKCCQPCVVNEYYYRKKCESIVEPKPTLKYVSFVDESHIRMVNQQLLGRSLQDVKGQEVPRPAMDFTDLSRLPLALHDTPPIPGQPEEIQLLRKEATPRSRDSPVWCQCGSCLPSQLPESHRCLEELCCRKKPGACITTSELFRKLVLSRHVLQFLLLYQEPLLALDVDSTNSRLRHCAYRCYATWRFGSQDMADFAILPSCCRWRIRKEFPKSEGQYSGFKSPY
In short: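 Ca2+ influx was triggered with BzATP (80 μM final) after a 10-min room-temperature compound preincubation and monitored with Fluo-4 (ex 480/em 540 nm) on FDSS. The cells were HEK293 stably carrying FLAG-tagged human P2X7. Duplicate-averaged 7-point dose-responses gave IC50s.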

rat P2X7, sequence (Q64663 whole entry): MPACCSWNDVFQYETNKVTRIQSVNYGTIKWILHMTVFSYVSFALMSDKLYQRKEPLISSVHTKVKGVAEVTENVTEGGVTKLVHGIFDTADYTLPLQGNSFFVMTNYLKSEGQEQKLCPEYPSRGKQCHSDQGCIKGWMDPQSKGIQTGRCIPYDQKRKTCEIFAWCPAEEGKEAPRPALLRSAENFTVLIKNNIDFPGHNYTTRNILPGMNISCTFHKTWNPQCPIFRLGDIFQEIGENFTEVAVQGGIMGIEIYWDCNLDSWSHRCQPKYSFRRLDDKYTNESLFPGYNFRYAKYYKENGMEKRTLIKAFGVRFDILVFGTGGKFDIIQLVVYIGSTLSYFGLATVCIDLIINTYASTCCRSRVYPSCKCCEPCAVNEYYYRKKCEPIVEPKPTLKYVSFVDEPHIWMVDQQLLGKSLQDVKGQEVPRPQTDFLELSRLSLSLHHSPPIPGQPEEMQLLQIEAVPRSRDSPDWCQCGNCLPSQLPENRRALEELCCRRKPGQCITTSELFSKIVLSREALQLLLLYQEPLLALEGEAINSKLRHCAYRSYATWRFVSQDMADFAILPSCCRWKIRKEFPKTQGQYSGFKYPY

IC50 [1] [nM]	IC50 [2] [nM]	SMILES
< 1000	< 50	O=C(NCc1ccc(F)cc1Cl)[C@]1(F)CC[C@@](O)(CN2CC(O)C2)c2ncccc21 (relative stereo) [Example 52, (5S*,8R*)-N-(2-chloro-4-fluorobenzyl)-5-fluoro-8-hy-droxy-8-((3-hydroxy-azetidin-1-yl)methyl)-5,6,7,8-tetrahydro-quinoline-5-carboxamide]
< 1000	< 50	COC1CN(C[C@]2(O)CC[C@@](F)(C(=O)NCc3ccc(F)cc3Cl)c3cccnc32)C1 (relative stereo) [Example 53, (5S*,8R*)-N-(2-chloro-4-fluorobenzyl)-5-fluoro-8-hydroxy-8-((3-methoxy-azetidin-1-yl)methyl)-5,6,7,8-tetrahydro-quinoline-5-carboxamide]
< 1000	< 50	CC1(O)CN(C[C@]2(O)CC[C@@](F)(C(=O)NCc3ccc(F)cc3Cl)c3cccnc32)C1 (relative stereo) [Example 54, (5S*,8R*)-N-(2-chloro-4-fluorobenzyl)-5-fluoro-8-hydroxy-8-((3-hydroxy-3-methylazetidin-1-yl)methyl)-5,6,7,8-tetra-hydroquinoline-5-carboxamide]
< 1000	< 50	COC1(C)CN(C[C@]2(O)CC[C@@](F)(C(=O)NCc3ccc(F)cc3Cl)c3cccnc32)C1 (relative stereo) [Example 55, (5S*,8R*)-N-(2-chloro-4-fluorobenzyl)-5-fluoro-8-hydroxy-8-((3-methoxy-3-methylazetidin-1-yl)methyl)-5,6,7,8-tetra-hydroquinoline-5-carboxamide]
< 1000	< 50	O=C(NCc1ccc(F)cc1Cl)[C@]1(F)CC[C@@](O)(CNCCO)c2ncccc21 (relative stereo) [Example 56, (5S*,8R*)-N-(2-chloro-4-fluorobenzyl)-5-fluoro-8-hydroxy-8-(((2-hydroxy-ethyl)amino)methyl)-5,6,7,8-tetrahydro-quinoline-5-carboxamide]
< 1000	< 50	CN(CCO)C[C@]1(O)CC[C@@](F)(C(=O)NCc2ccc(F)cc2Cl)c2cccnc21 (relative stereo) [Example 57, (5S*,8R*)-N-(2-chloro-4-fluorobenzyl)-5-fluoro-8-hydroxy-8-(((2-hydroxyethyl)(meth-yl)amino)methyl)-5,6,7,8-tetrahydroquinoline-5-carboxamide]
< 1000	< 50	N[C@]1(CO)CC[C@@](F)(C(=O)NCc2ccc(Cl)cc2Cl)c2cccnc21 (relative stereo) [Example 59, (5S*,8R*)-8-amino-N-(2,4-dichloro-benzyl)-5-fluoro-8-(hydroxymethyl)-5,6,7,8-tetrahydroquinoline-5-carboxamide]
< 1000	101 to 300	N[C@@]1(CO)CC[C@@](F)(C(=O)NCc2ccc(Cl)cc2Cl)c2cccnc21 (relative stereo) [Example 60, (5S*,8S*)-8-amino-N-(2,4-dichloro-benzyl)-5-fluoro-8-(hydroxymethyl)-5,6,7,8-tetrahydroquinoline-5-carboxamide]
< 1000	< 50	O=C1COC[C@]2(CC[C@@](F)(C(=O)NCc3ccc(Cl)cc3Cl)c3cccnc32)N1 (relative stereo) [Example 61, (3R*,5′S*)-N-(2,4-dichlorobenzyl)-5′-fluoro-5-oxo-6′,7′-dihydro-5′H-spiro[morpholine-3,8′-quinoline]-5′-carboxamide]
< 1000	101 to 300	O=C1COC[C@@]2(CC[C@@](F)(C(=O)NCc3ccc(Cl)cc3Cl)c3cccnc32)N1 (relative stereo) [Example 62, (3S*,5′S*)-N-(2,4-dichlorobenzyl)-5′-fluoro-5-oxo-6′,7′-dihydro-5′H-spiro[morpholine-3,8′-quinoline]-5′-carboxamide]
< 1000	50 to 100	O=C(NCc1cccc(Cl)c1Cl)[C@]1(F)CC[C@@H](O)c2ncccc21 (stereo in doubt) [Example 121, (5S,8RS)-N-(2,3-dichlorobenzyl)-5-fluoro-8-hydroxy-5,6,7,8-tetrahydroquinoline-5-carboxamide]
< 1000	< 50	Cc1cc(Cl)cc(Cl)c1CNC(=O)C1CCC(=O)c2ncccc21 (stereo not shown) [Example 1, N-(2,4-dichloro-6-methyl-benzyl)-8-oxo-5,6,7,8-tetrahydroquinoline-5-carboxamide]
< 1000	< 50	O=C1CCC(C(=O)NCc2cccc(C(F)(F)F)c2Cl)c2cccnc21 (stereo not shown) [Example 2, N-(2-chloro-3-(trifluoromethyl)benzyl)-8-oxo-5,6,7,8-tetrahydroquinoline-5-carboxamide]
< 1000	301 to 1000	O=C1CCC(C(=O)NCc2cccc(Cl)c2Cl)c2cccnc21 (stereo not shown) [Example 3, N-(2,3-dichlorobenzyl)-8-oxo-5,6,7,8-tetrahydro-quinoline-5-carboxamide]
< 1000	< 50	Cc1cc(Cl)cc(Cl)c1CNC(=O)C1CCC(O)c2ncccc21 (stereo not shown) [Example 6, N-(2,4-dichloro-6-methyl-benzyl)-8-hydroxy-5,6,7,8-tetrahydroquinoline-5-carboxamide]
< 1000	< 50	O=C(NCc1cccc(C(F)(F)F)c1Cl)C1CCC(O)c2ncccc21 (stereo not shown) [Example 7, N-(2-chloro-3-(trifluoromethyl)benzyl)-8-hydroxy-5,6,7,8-tetrahydro-quinoline-5-carboxamide]
< 1000	< 50	O=C(NCc1cccc(Cl)c1Cl)C1CCC(O)c2ncccc21 (stereo not shown) [Example 8, N-(2,3-dichlorobenzyl)-8-hydroxy-5,6,7,8-tetra hydroquinoline-5-carboxamide]
< 1000	< 50	COCc1cc(Cl)cc(Cl)c1CNC(=O)C1CCC(O)c2ncccc21 (stereo not shown) [Example 10, N-(2,4-dichloro-6-(methoxy-methyl)benzyl)-8-hydroxy-5,6,7,8-tetrahydro-quinoline-5-carboxamide]
< 1000	< 50	C=C1CC(C(=O)NCc2c(C)cc(Cl)cc2Cl)c2cccnc21 (stereo not shown) [Example 11, N-(2,4-dichloro-6-methyl-benzyl)-7-methylene-6,7-dihydro-5H-cyclopenta [b]pyridine-5-carboxamide]
< 1000	< 50	Cc1cc(Cl)cc(Cl)c1CNC(=O)C1(F)CCC(=O)c2ncccc21 (stereo not shown) [Example 12, N-(2,4-dichloro-6-methylbenzyl)-5-fluoro-8-oxo-5,6,7,8-tetrahydroquinoline-5-carboxamide]
< 1000	< 50	O=C1CCC(F)(C(=O)NCc2cccc(C(F)(F)F)c2Cl)c2cccnc21 (stereo not shown) [Example 13, N-(2-chloro-3-(trifluoromethyl)benzyl)-5-fluoro-8-oxo-5,6,7,8-tetrahydro-quinoline-5-carboxamide]
< 1000	< 50	O=C1CCC(F)(C(=O)NCc2c(Cl)cc(Cl)cc2CO)c2cccnc21 (stereo not shown) [Example 14, N-(2,4-dichloro-6-(hydroxymethyl)benzyl)-5-fluoro-8-oxo-5,6,7,8-tetrahydro-quinoline-5-carboxamide]
< 1000	< 50	Cc1cc(Cl)cc(Cl)c1CNC(=O)C1CC(=O)c2ncccc21 (stereo not shown) [Example 16, N-(2,4-dichloro-6-methylbenzyl)-7-oxo-6,7-dihydro-5H-cyclopenta[b]pyridine-5-carboxamide]

Source: patent publication US11077100B2, “Tetrahydroquinoline derivatives as P2X7 receptor antagonists” (RaQualia Pharma Inc., priority 2017, dated 2021)
